Experimental data taken from patent US5795891A, “Acylphenylglycine derivative and preventive and remedy for diseases caused by increased collagenase activity containing said compound as active ingredient” (Kanebo Ltd., priority 1993, dated 1998).
Structures can show the parent of a compound that is named as a salt.

Columns and labels:
[1] = test system: collagenase; test: Collagenase activity inhibition rate in blood after oral administration (in mice); assay type: in vivo; conditions: 30 mg/kg p.o.; for Collagenase Inhibition rates in blood after oral administration, After 2 hours: after 2 hours (as printed in head; text says 3 hours)
Procedure: (§1) Test compounds were suspended in 0.5% CMC and orally administered to three mice per group (the dose of the test compound, 30 mg/kg), and after a certain period of time, the blood was collected in the presence of heparin and ice-cooled. Plasma was obtained by centrifugation of this blood at 10,000 rpm for 5 minutes at 4° C. To 400 μl of this plasma was added to 600 μl of distilled water, and heated at 100° C. for 10 minutes. After cooling, the mixture was centrifuged at 10,000 rpm for 5 minutes and filtered using a micro-volume ultrafiltration unit (Molcut II, Millipore) to provide a sample (A) for use in collagenase activity measurement. Using this sample, collagenase activity inhibition rate in blood was determined by the following method.
(§2) The sample (A) above was mixed with a known amount of collagenase (the collagenase used was prepared by the method described in JP-A-3-103178) dissolved in a buffer for measurement (50 mM Tris-HCl buffer, pH 7.5, containing 0.2M sodium chloride, 5 mM calcium chloride, 0.05% Brij-35 and 0.02% sodium azide,), and collagenase activity A was measured according to the method of Nagai et al. (Japanese Journal of Inflammation, 4, 123 (1984)) using a fluorescein isothiocyanate-labeled type-I collagen as a substrate. […] Inhibition rate was determined from the following equation:
(§3) Inhibition rate (%)=(1-A/B)×100

[2] = test system: adjuvant arthritis; test: Adjuvant arthritis model: hind paw volume (swelling of adjuvant-uninjected hind paw); assay type: in vivo, male Lewis rats; conditions: 100 mg/kg at 12-hour intervals for 20 days; FIG. 1; t-test vs control
Procedure: (§4) 8-week old male Lewis rats (Charles River Japan, K.K.) were divided into 4 groups (normal control group, control group, and two test compound groups) of 7 animals each. Each of the rats of the control group and the test compound groups were intra-dermally injected with 0.6 mg of heat-killed M. butyricum in 0.1 ml of liquid paraffin suspension in their right hind paw to induce adjuvant arthritis. The test compounds were suspended in 0.5% CMC, and administered to the rats of the test compound group at a dose of 100 mg/kg per administration immediately after the injection of adjuvant and at 12-hour intervals thereafter over a period of 20 days. The rats of the control group received 0.5% CMC immediately after the injection of adjuvant and at 12-hour intervals thereafter over a period of 20 days. The rats of the normal control group were not injected with adjuvant but only administered 0.5% CMC analogously to the administration of the test compounds.
The volume of the hind paw was measured immediately before and on days 3, 7, 10, 14, 17 and 20 after the injection of adjuvant using a foot volume measuring apparatus. Analysis was made using t-test for superiority of the test compound group over the control group.
In the figure, lines n, c, y and d indicate the volume of the hind paw for the following groups, respectively: […]

[3] = test system: adjuvant arthritis; test: Adjuvant arthritis model: erythrocyte sedimentation rates; assay type: in vivo, male Lewis rats; conditions: 100 mg/kg at 12-hour intervals for 20 days; for effect on increase in erythrocyte sedimentation rates (in words): vs control; for Erythrocyte sedimentation rates: day 21, control 33 ± 2, normal 1 ± 0.1, ** P < 0.01 vs control (Compound D)
Procedure: as §4
The blood was fully removed on day 21 and used as a sample. Erythrocyte sedimentation measuring apparatus (Matsuyoshi's Erythrocyte Sedimentation rack) was used for the measurement, and statistical analysis was made according to the Dunnett's method for the superiority of the test compound group over the control group.

[4] = test system: adjuvant arthritis; test: Adjuvant arthritis model: serum calcium concentration; assay type: in vivo, male Lewis rats; conditions: 100 mg/kg at 12-hour intervals for 20 days; for effect on increase in serum calcium concentration (in words): vs control; for Serum calcium conc.: day 21, control 9.5 ± 0.1, normal 8.6 ± 0.1, ** P < 0.01 vs control (Compound D)
Procedure: as §4
Measurement was carried out on the same sample as above 2) using Calcium TestWAKO (Wako Junyaku), and statistical analysis was made according to the Dunnett's method for the superiority of the test compound group over the control group.

[5] = test system: adjuvant arthritis; test: Adjuvant arthritis model: urinary hydroxyproline excretion; assay type: in vivo, male Lewis rats; conditions: for Urinary hydroxyproline excretion (ratio to creatinine): after day 20, 100 mg/kg at 12-hour intervals, control 94.3 ± 1.8, normal 71.8 ± 2.6
Procedure: as §4
(§5) After the last administration of the test compounds on day 20, the rats were transferred into metabolic cages, and urine samples were collected overnight without supply of food or water. Urine volume and the amounts of creatinine and hydroxyproline were determined by the following method, and urinary hydroxyproline excretion expressed in the ratio to creatinine. Statistical analysis was made according to the Tukey's method for the superiority of test compound group over the control group. Determination of creatinine was carried out using Creatinine TestWAKO (Wako Junyaku). Hydroxyproline was determined by first hydrolyzing the urine with 6N hydrochloric acid, then isolation on high performance liquid chromatograph equipped with ion-exchange column (Hitachi Gel #2619), reaction with O-phthalaldehyde to form a hydroxyproline derivative, and measurement on a fluorophotometer.

[6] = test system: bone resorption; test: Test for inhibition of bone resorption: urine hydroxyproline/creatinine ratio in rats on calcium-deficient food; assay type: in vivo, male Wister rats; conditions: for effect on increase in urine hydroxyproline/creatinine ratio (in words): 100 mg/kg p.o., vs control; for Urinary hydroxyproline excretion (ratio to creatinine): single 100 mg/kg p.o., urine 16 hours, control 174 ± 7, normal 134 ± 7, * P < 0.05 vs control (Compound D)
Procedure: Furthermore, an investigation of its suppressive effect was carried out on bone resorption by administering the compound of the present invention to rats kept on a calcium-deficient food and using the urinary hydroxyproline excretion (ratio to creatinine) as an index.
as §5
6-week old male Wister rats (SLC Japan) were kept on a calcium-deficient food (Oriental Yeast, 0.0105-0.012% calcium, 0.62% phosphorus), orally administered 100 mg/kg of compound D or Y in a 0.5% CMC suspension on day 6 and, immediately thereafter, urine was collected for 16 hours under the condition of fasting with free access to water. The urine volume and urinary hydroxyproline and creatinirie content were measured by the method described in Example 3, and the urine hydroxyproline/creatinie ratio was calculated. Statistical analysis was made using the Tukey's method for the superiority of the test compound group over the control group.

[7] = parameters: species or system mice; conditions: mouse, in vivo, 3000 mg/kg
[8] = test system: collagenase; test: Activity in the living body / absorbability (general statements); conditions: in vivo
[9] = test system: collagenase; test: Collagenase activity inhibition rate in blood after oral administration (in rats); assay type: in vivo; conditions: 100 mg/kg p.o.
Procedure: as §1, §2, §3
The same procedure as Test Example 1 was followed except that mice were replaced with rats (3 rats/group) and the dose of the tested compounds selected to be 100 mg/kg.

CNC(=O)C(NC(=O)C(CC(C)C)C(C)C(=O)NO)c1ccccc1 (single isomer, unassigned) [Compound D]
Collagenase Inhibition rates in blood after oral administration, After 1 hour [1]: 87%
Collagenase Inhibition rates in blood after oral administration, After 2 hours [1]: 76%
swelling (volume increase) of the adjuvant-uninjected hind paw [2]: suppressed the swelling (volume increase) of the adjuvant-uninjected hind paw
effect on increase in erythrocyte sedimentation rates (in words) [3]: significantly suppressed the increase in erythrocyte sedimentation rates
Erythrocyte sedimentation rates [3]: 20 ± 2
effect on increase in serum calcium concentration (in words) [4]: significantly suppressed the increase in serum calcium concentration
Serum calcium conc. [4]: 8.9 ± 0.1 mg/dL
effect on increase in urinary hydroxyproline excretion (in words) ([5]; 100 mg/kg at 12-hour intervals for 20 days): tended to suppress the increase in urinary hydroxyproline excretion
Urinary hydroxyproline excretion (ratio to creatinine) [5]: 78.4 ± 6.1 μg/mg creatinine
effect on increase in urine hydroxyproline/creatinine ratio (in words) [6]: exhibited a significant suppression from the level of the control group
Urinary hydroxyproline excretion (ratio to creatinine) [6]: 144 ± 5 μg/mg creatinine
death after oral administration [7]: no death was observed
activity in the living body (in words) [8]: exhibits an excellent activity in the living body

CNC(=O)C(NC(=O)C(CC(=O)NO)CC(C)C)c1ccccc1 [Compound A, [4-(N-hydroxyamino)-2(R)-isobutylsuccinyl]-L-phenylglycine-N-methylamide]
Collagenase Inhibition rates in blood after oral administration, After 1 hour [1]: 88%
Collagenase Inhibition rates in blood after oral administration, After 2 hours [1]: 83%
Collagenase Inhibition rates in blood after oral administration, After 1 hr. [9]: 100%
Collagenase Inhibition rates in blood after oral administration, After 3 hrs. [9]: 91%
Collagenase Inhibition rates in blood after oral administration, After 6 hrs. [9]: 64%

CNC(=O)C(NC(=O)C(CC(=O)NO)CC(C)C)c1ccc(O)cc1 [Compound B, [4-(N-hydroxyamino)-2(R)-isobutylsuccinyl]-L-(p-hydroxyphenyl)glycine-N-methylamide]
Collagenase Inhibition rates in blood after oral administration, After 1 hour [1]: 84%
Collagenase Inhibition rates in blood after oral administration, After 2 hours [1]: 62%

CNC(=O)C(NC(=O)C(CC(C)C)C(CN1CCOCC1)C(=O)NO)c1ccccc1 [Compound C, [4-(N-hydroxyamino)-2(R)-isobutyl-3-(morpholinomethyl)succinyl]-L-phenylglycine-N-methylamide hydrochloride]
Collagenase Inhibition rates in blood after oral administration, After 1 hour [1]: 75%
Collagenase Inhibition rates in blood after oral administration, After 2 hours [1]: 64%

CNCC(C(=O)NO)C(CC(C)C)C(=O)NC(C(=O)NC)c1ccccc1 [Compound E, [4-(N-hydroxyamino)-2(R)-isobutyl-3-(methylaminomethyl)succinyl]-L-phenylglycine-N-methylamide]
Collagenase Inhibition rates in blood after oral administration, After 1 hour [1]: 82%
Collagenase Inhibition rates in blood after oral administration, After 2 hours [1]: 61%

CCNC(=O)C(NC(=O)C(CC(=O)NO)CC(C)C)c1ccccc1 [Compound F, [4-(N-hydroxyamino)-2(R)-isobutylsuccinyl]-L-phenylglycine-N-ethylamide]
Collagenase Inhibition rates in blood after oral administration, After 1 hour [1]: 89%
Collagenase Inhibition rates in blood after oral administration, After 2 hours [1]: 53%

CNC(=O)C(NC(=O)C(CC(=O)NO)CC(C)C)c1ccc(F)cc1 [Compound G, [4-(N-hydroxyamino)-2(R)-isobutylsuccinyl]-L-(p-fluorophenyl)glycine-N-methylamide]
Collagenase Inhibition rates in blood after oral administration, After 1 hour [1]: 83%
Collagenase Inhibition rates in blood after oral administration, After 2 hours [1]: 64%

CNC(=O)C(NC(=O)C(CC(=O)NO)CC(C)C)c1ccc(C(C)C)cc1 [Compound H, [4-(N-hydroxyamino)-2(R)-isobutylsuccinyl]-L-(p-isopropylphenyl)glycine-N-methylamide]
Collagenase Inhibition rates in blood after oral administration, After 1 hour [1]: 74%
Collagenase Inhibition rates in blood after oral administration, After 2 hours [1]: 63%

CNC(=O)[C@H](Cc1ccc(OC)cc1)NC(=O)[C@@H](CC(=O)NO)CC(C)C [Known compound X, [4-(N-hydroxyamino)-2(R)-isobutylsuccinyl]-L-O-methyltyrosine-N-methylamide, reference compound]
Collagenase Inhibition rates in blood after oral administration, After 1 hour [1]: 60%
Collagenase Inhibition rates in blood after oral administration, After 2 hours [1]: 43%
Collagenase Inhibition rates in blood after oral administration, After 1 hr. [9]: 45%
Collagenase Inhibition rates in blood after oral administration, After 3 hrs. [9]: 44%
Collagenase Inhibition rates in blood after oral administration, After 6 hrs. [9]: 33%

CNC(=O)[C@H](Cc1ccccc1)NC(=O)[C@H](CC(C)C)[C@H](CSc1cccs1)C(=O)NO [Known compound Y, [4-(N-hydroxyamino)-2(R)-isobutyl-3(S)-(2-thienyl)thiomethylsuccinyl]-L-phenylalanine-N-methylamide, reference compound]
Collagenase Inhibition rates in blood after oral administration, After 1 hour [1]: 14%
Collagenase Inhibition rates in blood after oral administration, After 2 hours [1]: 21%
effect on increase in erythrocyte sedimentation rates (in words) [3]: no such effect was noted
Erythrocyte sedimentation rates [3]: 30 ± 3
effect on increase in serum calcium concentration (in words) [4]: no such effect was noted
Serum calcium conc. [4]: 9.6 ± 0.1 mg/dL
Urinary hydroxyproline excretion (ratio to creatinine) [5]: 107.1 ± 6.5 μg/mg creatinine
effect on increase in urine hydroxyproline/creatinine ratio (in words) [6]: hardly suppressed this increase
Urinary hydroxyproline excretion (ratio to creatinine) [6]: 161 ± 3 μg/mg creatinine

CNC(=O)[C@H](Cc1c[nH]c2ccccc12)NC(=O)[C@@H](CC(=O)NO)CC(C)C [Known compound Z, [4-(N-hydroxyamino)-2(R)-isobutylsuccinyl]-L-tryptophan-N-methylamide, reference compound]
Collagenase Inhibition rates in blood after oral administration, After 1 hour [1]: 58%
Collagenase Inhibition rates in blood after oral administration, After 2 hours [1]: 51%
